# Article PMC6346587, “Glucose 6-phosphate dehydrogenase 6-phosphogluconolactonase: characterization of the Plasmodium vivax enzyme and inhibitor studies” (Malaria Journal, 2019)
# T1: PfGluPho (Plasmodium falciparum, UniProt Q8IKU0)
# T1 construct: made in house
# T1 sequence (Q8IKU0 1-910): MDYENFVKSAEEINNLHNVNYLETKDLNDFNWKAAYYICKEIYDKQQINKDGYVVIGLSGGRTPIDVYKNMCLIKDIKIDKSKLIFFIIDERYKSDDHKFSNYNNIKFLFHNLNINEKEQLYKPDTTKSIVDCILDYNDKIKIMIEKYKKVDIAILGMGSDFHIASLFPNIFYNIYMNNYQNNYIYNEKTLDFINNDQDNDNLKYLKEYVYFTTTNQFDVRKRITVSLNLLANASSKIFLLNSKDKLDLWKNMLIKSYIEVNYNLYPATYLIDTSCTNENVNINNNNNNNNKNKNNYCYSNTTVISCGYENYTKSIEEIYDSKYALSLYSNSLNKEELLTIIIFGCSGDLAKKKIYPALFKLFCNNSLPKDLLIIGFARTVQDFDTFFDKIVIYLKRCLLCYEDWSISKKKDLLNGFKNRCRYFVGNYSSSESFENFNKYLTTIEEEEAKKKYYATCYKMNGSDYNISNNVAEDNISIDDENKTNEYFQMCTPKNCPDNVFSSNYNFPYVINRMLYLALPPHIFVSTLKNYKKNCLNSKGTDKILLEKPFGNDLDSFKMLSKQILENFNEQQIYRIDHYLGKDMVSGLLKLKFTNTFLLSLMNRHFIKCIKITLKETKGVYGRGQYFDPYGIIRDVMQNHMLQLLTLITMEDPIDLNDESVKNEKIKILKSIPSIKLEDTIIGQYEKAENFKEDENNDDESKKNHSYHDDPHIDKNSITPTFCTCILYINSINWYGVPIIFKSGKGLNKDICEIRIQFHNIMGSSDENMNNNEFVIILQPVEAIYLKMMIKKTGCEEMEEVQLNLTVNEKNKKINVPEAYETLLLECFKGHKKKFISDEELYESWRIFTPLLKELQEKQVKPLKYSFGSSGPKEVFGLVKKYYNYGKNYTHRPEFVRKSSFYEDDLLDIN
# Columns and labels:
# [1] = system: P. falciparum 3D7[hGrx1-roGFP2] cytosolic glutathione-dependent redox potential; experiment: Cytosolic glutathione redox sensor hGrx1-roGFP2, confocal live cell imaging (CLSM); type: cell-based, Plasmodium falciparum; settings: 24 h incubation, approximately 4 × EC50
# Description: A Leica confocal system TCS SP5 inverted microscope equipped with the objective HCX PL APO 63.0 × 1.30 GLYC 37 °C UV connected to a 37 °C temperature chamber was used. The argon laser power was set to 20%; scanning was performed at 400 Hz frequency and at a 512 × 512 pixel resolution. The smart gain and smart offset were 950 V and −0.9%, respectively. With a sequential scan, the hGrx1–roGFP2 probe was excited at 405 nm and at 488 nm and emission was detected at 500–550 nm. Laser intensity was adjusted to match the full dynamic range of the probe to the dynamic range of the detector (405 nm: 10%, 488 nm: 4%). […] The Leica LAS AF Lite software for fluorescence analysis was used. The 405/488 nm ratio was calculated. The graphs were plotted using the GraphPad Prism 5 software (San Diego, CA, USA). For live cell imaging, only parasites showing fluorescent signals at both 405 and 488 nm excitation and an intact host cell were chosen.
# The effect of ML304 and the anti-malarial drugs ATS and CQ as reference drugs on P. falciparum were investigated in 4 h and 24 h incubation experiments. […] For 4 h experiments, trophozoite stage parasites (26–30 h) of 3D7^[hGrx1–roGFP2] and NF54^[hGrx1–roGFP2] (6–8% parasitaemia) were magnetically enriched (Miltenyi Biotec, Germany), counted by using a Neubauer hemocytometer (Brand GmbH, Germany), and returned to cell culture (at 2.0 × 10^4 trophozoites μL^−1) for at least 1 h to recover. 1.0 × 10^6 cells in 100 μL cell culture medium were placed into LoBind tubes (Eppendorf, Hamburg, Germany) for 4 h incubation experiments. The parasites were treated with ML304 at 1 μM, 50 μM, and 100 μM, or with the anti-malarial drugs ATS and CQ at approximately 50 × EC50 for 4 h under cell culture conditions. Subsequently, free thiol groups were blocked with 2 mM N-ethylmaleimide (NEM) for 15 min at 37 °C. For 24 h experiments, a 5 mL culture (5% haematocrit, 6–8% parasitaemia) of ring stage parasites (6–10 h post invasion) was treated with ML304 at 1 μM, 5 μM, and 10 μΜ, or the anti-malarial drugs ATS and CQ at approximately 4 × EC50. Prior to enrichment, cysteines were blocked with 2 mM NEM for 15 min at 37 °C. For 4 h and 24 h experiments, cells were washed after incubation and resuspended in Ringer’s solution (122.5 mM NaCl, 5.4 mM KCl, 1.2 mM CaCl2, 0.8 mM MgCl2, 11 mM D-glucose, 25 mM HEPES, 1 mM NaH2PO4, pH 7.4). 50 μL of cells (1.0 × 10^6 cells 50^−1 μL^−1) were seeded onto poly-L-lysine-coated μ-Slides 18 well (flat) (Ibidi, Martinsried, Germany) and measured using CLSM (confocal laser scanning microscopy) with excitation wavelengths at 405 nm and 488 nm. […] Each experiment was carried out three times. Between 10 and 20 microscopy images were taken each time, resulting in at least 30 experimental values per concentration and incubation time. The obtained ratio values were normalized to the control value, which was set to 100. All experiments were carried out within 6 weeks after the appearance of transfectants. Mean and standard error of the mean (SEM) are shown. A one-way ANOVA test with 95% confidence intervals with the Dunnett’s multiple comparison test (GraphPad Prism 5.0) was applied for statistical analysis of significance (*p < 0.05; **p < 0.01; ***p < 0.001).
# [2] = biological target: T2, recombinant hGrx1-roGFP2 (Homo sapiens, UniProt P35754); experiment: In vitro interaction with recombinant hGrx1-roGFP2 probe; type: biochemical; settings: at the concentrations used in this study
# T2 construct: made in house
# Description: The sensor hGrx1–roGFP2 (human glutaredoxin 1-reduction–oxidation sensitive green fluorescent protein 2) was recently transiently expressed in 3D7 P. falciparum parasites by using the pARL1a(+) expression vector. Heterologous overexpression of hGrx1–roGFP2 for the evaluation of the in vitro interactions of ML304 and anti-malarial drugs with the recombinant redox probe was performed according to [35].
# ML304 was used at concentrations of 10 nM to 1 mM in degassed standard reaction buffer (100 mM potassium phosphate, 1 mM EDTA, pH 7.0). […] The characterization of the in vitro interaction of hGrx1–roGFP2 with ML304 was performed according to Schuh et al..
# [3] = system: P. falciparum 3D7; settings: determined previously; cited from earlier work
# [4] = biological target: PfPrx1a (Plasmodium falciparum); experiment: non-reducing SDS-PAGE with western blot; recombinant PfPrx1a (positive control) after incubation with GSSG, SDS-PAGE without DTT, anti-glutathione western blot and Ponceau staining
# [5] = biological target: PvG6PD (Plasmodium vivax, UniProt A5K3M1); experiment: PvG6PD enzyme inhibition assay (NADPH formation, absorbance 340 nm / fluorescence); type: biochemical; settings: for Type of inhibition of PvG6PD: with respect to both G6P and NADP+
# Description: The G6PD activity of PfGluPho variants was measured spectrophotometrically as described for the wt enzyme. Kinetic characterization of PvG6PD was performed using the same assay system at an Evolution 300 spectrophotometer (Thermo Scientific, Dreieich, Germany). In brief, the initial reduction of NADP^+ to NADPH by PvG6PD was monitored by measuring the absorbance at 340 nm. The 500 µL reaction mixture contained 200 µM NADP^+ and varying concentrations of PvG6PD in an assay buffer of 100 mM Tris–HCl, pH 8.0, 10 mM MgCl2, and 0.5 mM EDTA at 25 °C. The reaction was started by adding 800 µM G6P. The KM for NADP^+ was determined by titrating NADP^+ from 2 to 400 µM at 800 µM G6P; the KM for G6P was measured accordingly by titrating G6P from 2 to 1200 µM at 200 µM NADP^+. KM values were calculated using GraphPad Prism. Since the KM for G6P was considerably higher than the value measured for PfGluPho [14], a concentration of 800 µM G6P was defined as substrate saturation for PvG6PD.
# To identify potential inhibitors of PvG6PD, compounds with already known effects on PfGluPho (ellagic acid and derivatives, ML304) were tested. Additionally, several compound libraries of the Helmholtz Center for Infection Research, Brunswick, were screened against PfGluPho using the high-throughput-compatible assay systems described in Preuss et al.. […] Based on structure-activity relationship studies, a set of new potential G6PD inhibitors (Fig. 8) was then synthesized and assessed. First, the IC50 values of the compounds were determined, followed by mechanistic characterization of the mode of action. To test for selectivity of the compounds, the IC50 values of the compounds on PvG6PD, PfGluPho, and hG6PD were determined in parallel.
# All measurements were performed in 96-well plates, half area (Greiner Bio-One, Frickenhausen, Germany) using a Tecan Infinite M200 plate reader (Maennedorf, Switzerland). The compounds were dissolved in 100% DMSO and afterwards diluted in assay buffer to the required concentrations. Different compound concentrations were added to a mixture of enzyme and NADP^+ in assay buffer. Concentrations of substrates differed depending on the enzyme; an overview is given in the Additional file 4. The reaction was started by adding G6P, and the increase of NADPH was monitored by measuring the absorbance at 340 nm. To increase the sensitivity of the assay, some measurements were reproduced, detecting the fluorescence of NADPH at ex340/em460. […] A negative control containing no compound was defined as 0% inhibition; a positive control lacking the substrate G6P was defined as 100% inhibition. For evaluations using GraphPad Prism and Microsoft Excel, only a linear increase in absorbance/fluorescence was considered. For the mechanistic characterization of the compounds, either NADP^+ or G6P were titrated at different compound concentrations around the IC50, while keeping the second substrate in saturation. The initial slope was plotted as Michaelis–Menten curves and Lineweaver–Burk plots using GraphPad Prism; KM values and Vmax were calculated with GraphPad Prism software.
# [6] = biological target: T1, PfGluPho; settings: cited from earlier work
# [7] = biological target: T3, hG6PD (Homo sapiens, UniProt P11413); settings: ellagic acid; read-out: IC50 for hG6PD; cited from earlier work
# T3 construct: made in house
# T3 sequence (P11413 whole entry): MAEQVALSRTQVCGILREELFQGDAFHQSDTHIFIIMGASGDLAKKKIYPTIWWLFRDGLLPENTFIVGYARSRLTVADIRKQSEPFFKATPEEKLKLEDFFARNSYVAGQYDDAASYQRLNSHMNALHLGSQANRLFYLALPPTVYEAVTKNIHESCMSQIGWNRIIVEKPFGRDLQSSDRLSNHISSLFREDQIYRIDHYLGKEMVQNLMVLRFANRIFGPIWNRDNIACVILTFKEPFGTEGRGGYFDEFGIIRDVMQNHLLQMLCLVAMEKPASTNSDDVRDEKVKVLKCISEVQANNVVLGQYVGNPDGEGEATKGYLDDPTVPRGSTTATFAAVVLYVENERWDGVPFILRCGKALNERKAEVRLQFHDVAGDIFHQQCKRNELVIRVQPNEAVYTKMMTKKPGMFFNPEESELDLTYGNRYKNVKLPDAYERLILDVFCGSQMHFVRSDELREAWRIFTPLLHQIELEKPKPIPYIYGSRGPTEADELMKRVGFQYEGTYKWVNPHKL
# [8] = system: P. falciparum strains; settings: cited from earlier work
# [9] = system: Plasmodium yoelii strain overproducing GSH; design: method as in PMID 23029306; settings: cited from earlier work
# [10] = cited from earlier work
# [11] = biological target: the molecule itself; experiment: SEC; gel filtration chromatography of purified PvG6PD under reducing conditions; single peak of approximately 389 kDa
molecule,measurement,setting,value
"CCN(CC)CCCC(C)Nc1ccnc2cc(Cl)ccc12 (stereo not drawn) [CQ, chloroquine]",Increase of redox ratio (405/488 nm),[1],1.5 fold
same,Direct interaction with recombinantly purified hGrx1-roGFP2 probe,[2],excluded a direct interaction
same,EC50,[3],8.6 nM
PfPrx1a (enzyme),stoichiometry N,[4],2
O=c1oc2c(O)c(O)cc3c(=O)oc4c(O)c(O)cc1c4c23 [ellagic acid],IC50,[5],32.5 ± 13.4 nM
same,Type of inhibition of PvG6PD,[5],mixed type inhibitor
same,Type of inhibition of PvG6PD,[5]; listed as EA,mixed type inhibition
same,IC50,"[6]; ellagic acid, read-out: IC50 on PfGluPho",77 ± 22 nM
same,Type of inhibition of PfGluPho,[6]; with respect to both G6P and NADP+,mixed type inhibition
same,IC50,[7],102 ± 39 nM
same,"Interaction with chloroquine, atovaquone, mefloquine, and artesunate",[8],synergistic effects
same,Sensitivity of GSH-overproducing P. yoelii strain versus wt,[9],five times less sensitive
same,Haemolytic effects,[10]; mice,no observable haemolytic effects
same,Overall toxicity in mice,"[10]; mouse, in vivo",low
"C[C@@H]1CC[C@H]2[C@@H](C)C(=O)O[C@@H]3O[C@@]4(C)CC[C@@H]1[C@]32OO4 [ATS, artemisinin]",Increase of redox ratio (405/488 nm),[1],hardly affected
same,Direct interaction with recombinantly purified hGrx1-roGFP2 probe,[2],excluded a direct interaction
same,EC50,[3],4.4 nM
"Plasmodium vivax glucose 6-phosphate dehydrogenase (PvG6PD), C-terminal part (aa 310-927) of PvGluPho (domain or fragment, UniProt A5K3M1 310-927, looked up, glucose 6-phosphate dehydrogenase 6-phosphogluconolactonase (PvGluPho) of Plasmodium vivax, PlasmoDB PVX_117790; G6PD part, aa 310-927 (bp 930-2784); Calculated mass of the His-tagged protein 71.9 kDa; also called P. vivax G6PD; source: E. coli M15 with pRAREII (pQE30 vector), purified (Ni-NTA, size exclusion chromatography); not shown: His6, N-terminal, kept) LNRRECLTIIVFGCSGDLAKKKIYPAIFKLFCNKRLPKDLLIVGFARTAQSFDSFFDKIVGYLKRCLHSYEDLSLTQKKDLLNCFKNKCRYYIGDYSSSESFERFNKYLTQLERENLIGTAPTSWAAAAGNASFANDTDKVEHHPDEAILAKGTGAATPGEAPGGANGPATHGEAHGGANGLSTPMQGKAVPTDDTSDEGHSGANHPFAINRILYLALPPHIFVSTLKNYKKNCQNGNGTDKILLEKPFGKDLQTFKVLSKQILENFNEEHIYRIDHYLGKDMVSGLLKLKFTNTFLLSLMNRHFIKCIKITLKETKGVYGRGQYFDPYGIIRDVMQNHMLQLLALITMEDPIDLNDESVKNEKIKILKCIQSIKLDNTIIGQYVKSENYQEEKNLSAPPSDDHPVDESKRNHSYHDDPHIDSNSITPTFCTCILYINSINWYGVPIIFKAGKGLNKDICEIRLQFHNIMGSSDESMYNNEFVIILQPVEVIYLKMMIKKTGCEEMEEVQLNLTVNHKNKKNYVPEAYETLLLECFRGFKKKFISDEELYESWRIFTPLLNELQEKKVQPLKYPFGSSGPKEVYDLVKKYYNYGKNYANTPAFVRKSSFYEDDLLDIN",stoichiometry N,[11],6
